According to US20200339537A1, “NOVEL COMPOUND AS INHIBITOR AGAINST BINDING OF PF34 PROTEIN TO NEDD4-1 PROTEIN AND USE THEREOF” (ENHANCEDBIO INC., priority 2017, published 2020):

Molecular target: T1, binding between p34 protein and NEDD4-1 protein (Homo sapiens, UniProt P46934+Q9UHV2)
T1 construct: FLAG or 6xHis (known only from the detection antibodies)
T1 sequence (P46934 1-1319): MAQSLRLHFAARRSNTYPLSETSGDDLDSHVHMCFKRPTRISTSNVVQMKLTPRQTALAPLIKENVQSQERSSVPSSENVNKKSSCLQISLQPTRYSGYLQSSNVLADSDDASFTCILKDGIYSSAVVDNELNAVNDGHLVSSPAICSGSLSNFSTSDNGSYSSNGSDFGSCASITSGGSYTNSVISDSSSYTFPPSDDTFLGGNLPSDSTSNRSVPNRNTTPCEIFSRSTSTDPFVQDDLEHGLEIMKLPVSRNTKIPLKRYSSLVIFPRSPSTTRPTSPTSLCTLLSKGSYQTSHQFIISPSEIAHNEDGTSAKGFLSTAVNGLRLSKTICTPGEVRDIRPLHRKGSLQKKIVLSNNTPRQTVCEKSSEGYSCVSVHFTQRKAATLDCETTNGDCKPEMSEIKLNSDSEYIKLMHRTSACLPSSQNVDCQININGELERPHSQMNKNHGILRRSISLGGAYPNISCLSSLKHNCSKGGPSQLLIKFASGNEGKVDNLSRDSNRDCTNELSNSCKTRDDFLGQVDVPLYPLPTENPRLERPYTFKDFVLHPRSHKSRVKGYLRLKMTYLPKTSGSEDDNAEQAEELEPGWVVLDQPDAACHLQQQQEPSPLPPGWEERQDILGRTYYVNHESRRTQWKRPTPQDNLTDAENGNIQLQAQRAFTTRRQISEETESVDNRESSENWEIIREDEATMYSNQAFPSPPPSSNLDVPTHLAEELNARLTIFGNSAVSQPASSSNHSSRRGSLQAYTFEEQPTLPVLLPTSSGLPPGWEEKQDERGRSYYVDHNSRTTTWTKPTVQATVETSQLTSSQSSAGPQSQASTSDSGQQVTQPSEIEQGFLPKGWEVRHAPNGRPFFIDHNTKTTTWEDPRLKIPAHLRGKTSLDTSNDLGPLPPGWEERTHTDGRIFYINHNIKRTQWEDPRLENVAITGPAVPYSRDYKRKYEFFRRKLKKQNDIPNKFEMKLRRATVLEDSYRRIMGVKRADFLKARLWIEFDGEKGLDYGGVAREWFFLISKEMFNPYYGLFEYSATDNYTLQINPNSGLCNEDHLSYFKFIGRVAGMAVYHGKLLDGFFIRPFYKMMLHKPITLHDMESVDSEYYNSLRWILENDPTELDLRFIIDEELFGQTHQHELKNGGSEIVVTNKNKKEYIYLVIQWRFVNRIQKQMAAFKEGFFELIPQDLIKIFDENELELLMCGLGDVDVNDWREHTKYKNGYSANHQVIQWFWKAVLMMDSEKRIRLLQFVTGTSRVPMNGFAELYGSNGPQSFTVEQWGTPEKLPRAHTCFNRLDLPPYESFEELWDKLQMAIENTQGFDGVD
T1 sequence (Q9UHV2 1-236): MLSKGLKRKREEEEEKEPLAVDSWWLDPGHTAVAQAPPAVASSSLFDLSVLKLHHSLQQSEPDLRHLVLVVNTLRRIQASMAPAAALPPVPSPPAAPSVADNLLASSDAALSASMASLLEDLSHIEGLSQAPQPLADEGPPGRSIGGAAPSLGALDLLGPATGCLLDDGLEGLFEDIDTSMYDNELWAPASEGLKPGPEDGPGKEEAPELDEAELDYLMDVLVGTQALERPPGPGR
Test: Inhibitory activity on binding between p34 and NEDD4-1, FRET (HTRF) assay
Details: pH 7.4, compound 10 μM; 1×PBS pH 7.4, 0.1% BSA, 2% DMSO; 384-well
Method: Inhibitory activity of the compound on binding between p34 and NEDD4-1 was evaluated using p34 protein and NEDD4-1 protein based on the HTRF technology developed by Cisbio. In this assay, a fluorescence resonance energy transfer (FRET) signal was measured in the presence of terbium-labeled anti-FLAG antibody and d2-labeled anti-6XHis antibody. Experiments were performed in 384-well plates under a condition of 1×PBS pH 7.4, 0.1% BSA, and 2% DMSO. A background signal was measured in the absence of the p34-NEDD4-1 proteins, and a non-inhibiting signal was measured with addition of only a solvent (2% DMSO). […] Subsequently, inhibitory activity of the compound on p34-NEDD4-1 was calculated in %.

| SMILES | inhibition at 10 µM [%] |
| --- | --- |
| O=C(NCc1cncs1)C1CCN(Cc2c[nH]c3ccc(C(F)(F)F)cc23)CC1 [Example 31] | 58.6 |
| O=C(NCc1nc2ccccc2o1)C1CCN(Cc2c[nH]c3ccc(C(F)(F)F)cc23)CC1 [Example 32] | 61.1 |
| O=C(NC(Cc1ccccc1)c1nc2ccccc2[nH]1)C1CCN(Cc2c[nH]c3ccc(C(F)(F)F)cc23)CC1 (stereo not drawn) [Example 33] | 41.2 |
| CC(NC(=O)C1CCN(Cc2c[nH]c3ccc(C(F)(F)F)cc23)CC1)c1nc2ccccc2[nH]1 (stereo not drawn) [Example 34] | 59.6 |
| CCC(NC(=O)C1CCN(Cc2c[nH]c3ccc(C(F)(F)F)cc23)CC1)c1nc2ccccc2[nH]1 (stereo not drawn) [Example 35] | 45.5 |
| O=C(NCc1nc2cc(F)ccc2[nH]1)C1CCN(Cc2c[nH]c3ccc(C(F)(F)F)cc23)CC1 [Example 37] | 39.4 |
| O=C(NCc1nc2cc(F)c(F)cc2[nH]1)C1CCN(Cc2c[nH]c3ccc(C(F)(F)F)cc23)CC1 [Example 39] | 37.7 |
| O=C(NCc1nc2ccccc2[nH]1)C1CCN(Cc2c[nH]c3ccc(Cl)cc23)CC1 [Example 45] | 33.8 |
| O=C(NCc1nc2ccccc2[nH]1)C1CCN(Cc2c[nH]c3ccccc23)CC1 [Example 61] | 52.3 |
| O=C(Nc1ccc(C(F)(F)F)cc1)N1CCN(Cc2ccc3[nH]ccc3c2)CC1 [Example 68] | 49.6 |
| Cc1ccc2[nH]c(CNC(=O)N3CCN(Cc4c[nH]c5ccc(Cl)cc45)CC3)nc2c1 [Example 71] | 33.7 |
| O=C(Nc1ccccn1)N1CCN(Cc2ccc3[nH]ccc3c2)CC1 [Example 72] | 55.5 |
| O=C(Nc1ncccn1)N1CCN(Cc2ccc3[nH]ccc3c2)CC1 [Example 73] | 53.5 |
| O=C(Nc1ccccc1)N1CCN(Cc2ccc3[nH]ccc3c2)CC1 [Example 77] | 35.3 |
| O=C(NCc1nccs1)N1CCN(Cc2n[nH]c3ccccc23)CC1 [Example 79] | 54.4 |
| O=C(NCc1nccs1)N1CCN(Cc2ccc3[nH]ccc3c2)CC1 [Example 80] | 49.7 |
| O=C(NCc1nccs1)N1CCN(Cc2c[nH]c3ccc(F)cc23)CC1 [Example 81] | 50.7 |
| O=C(NCc1nccs1)N1CCN(Cc2ccc3cc[nH]c3c2)CC1 [Example 82] | 47.2 |
| O=C(NCc1cncs1)N1CCN(Cc2n[nH]c3ccccc23)CC1 [Example 83] | 41.3 |
| O=C(NCc1cncs1)N1CCN(Cc2ccc3[nH]ccc3c2)CC1 [Example 84] | 44.1 |
| O=C(NCc1cncs1)N1CCN(Cc2c[nH]c3ccc(Cl)cc23)CC1 [Example 85] | 44 |
| O=C(NCc1cncs1)N1CCN(Cc2c[nH]c3ccc(F)cc23)CC1 [Example 86] | 41.6 |
| O=C(NCc1cncs1)N1CCN(Cc2ccc3cc[nH]c3c2)CC1 [Example 87] | 48.7 |
| Cc1[nH]c2ccc(CN3CCN(C(=O)NCc4cncs4)CC3)cc2c1C [Example 89] | 31.5 |

Test system: PTEN (lipid phosphatase activity) in human colon cancer cell line SW620
Test: cells
Format: cell-based
Details: Homo sapiens, SW-620, 48 h, compound 5 μM, PTEN immunoprecipitation, diC8-PIP3 substrate, Biomol Green, read-out: PTEN activity (relative fold @5 μM)

| SMILES | fold induction at 5 µM |
| --- | --- |
| O=C(NCc1cncs1)C1CCN(Cc2c[nH]c3ccc(C(F)(F)F)cc23)CC1 [Example 31] | 1.5 |
| O=C(NCc1nc2ccccc2o1)C1CCN(Cc2c[nH]c3ccc(C(F)(F)F)cc23)CC1 [Example 32] | 1.8 |
| O=C(NC(Cc1ccccc1)c1nc2ccccc2[nH]1)C1CCN(Cc2c[nH]c3ccc(C(F)(F)F)cc23)CC1 (stereo not drawn) [Example 33] | 2.5 |
| CC(NC(=O)C1CCN(Cc2c[nH]c3ccc(C(F)(F)F)cc23)CC1)c1nc2ccccc2[nH]1 (stereo not drawn) [Example 34] | 1.9 |
| CCC(NC(=O)C1CCN(Cc2c[nH]c3ccc(C(F)(F)F)cc23)CC1)c1nc2ccccc2[nH]1 (stereo not drawn) [Example 35] | 1.5 |
| O=C(NCc1nc2cc(F)ccc2[nH]1)C1CCN(Cc2c[nH]c3ccc(C(F)(F)F)cc23)CC1 [Example 37] | 1.5 |
| O=C(NCc1nc2cc(F)c(F)cc2[nH]1)C1CCN(Cc2c[nH]c3ccc(C(F)(F)F)cc23)CC1 [Example 39] | 1.6 |
| O=C(NCc1nc2ccccc2[nH]1)C1CCN(Cc2c[nH]c3ccc(Cl)cc23)CC1 [Example 45] | 2.8 |
| O=C(NCc1nc2ccccc2[nH]1)C1CCN(Cc2c[nH]c3ccccc23)CC1 [Example 61] | 2.1 |
| O=C(Nc1ccc(C(F)(F)F)cc1)N1CCN(Cc2ccc3[nH]ccc3c2)CC1 [Example 68] | 1.8 |
| Cc1ccc2[nH]c(CNC(=O)N3CCN(Cc4c[nH]c5ccc(Cl)cc45)CC3)nc2c1 [Example 71] | 1.8 |
| O=C(Nc1ccccn1)N1CCN(Cc2ccc3[nH]ccc3c2)CC1 [Example 72] | 1.9 |
| O=C(Nc1ncccn1)N1CCN(Cc2ccc3[nH]ccc3c2)CC1 [Example 73] | 2.1 |
| O=C(Nc1ccccc1)N1CCN(Cc2ccc3[nH]ccc3c2)CC1 [Example 77] | 1.8 |
| O=C(NCc1nccs1)N1CCN(Cc2n[nH]c3ccccc23)CC1 [Example 79] | 2.2 |
| O=C(NCc1nccs1)N1CCN(Cc2ccc3[nH]ccc3c2)CC1 [Example 80] | 2.1 |
| O=C(NCc1nccs1)N1CCN(Cc2c[nH]c3ccc(F)cc23)CC1 [Example 81] | 2.2 |
| O=C(NCc1nccs1)N1CCN(Cc2ccc3cc[nH]c3c2)CC1 [Example 82] | 1.7 |
| O=C(NCc1cncs1)N1CCN(Cc2n[nH]c3ccccc23)CC1 [Example 83] | 1.9 |
| O=C(NCc1cncs1)N1CCN(Cc2ccc3[nH]ccc3c2)CC1 [Example 84] | 2.9 |
| O=C(NCc1cncs1)N1CCN(Cc2c[nH]c3ccc(Cl)cc23)CC1 [Example 85] | 1.9 |
| O=C(NCc1cncs1)N1CCN(Cc2c[nH]c3ccc(F)cc23)CC1 [Example 86] | 2 |
| O=C(NCc1cncs1)N1CCN(Cc2ccc3cc[nH]c3c2)CC1 [Example 87] | 1.9 |
| Cc1[nH]c2ccc(CN3CCN(C(=O)NCc4cncs4)CC3)cc2c1C [Example 89] | 2 |
